Here are results for one molecule from patent US20210189444A1, “METHOD OF PURIFYING CANNABINOIDS FROM YEAST FERMENTATION BROTH” (Demetrix, Inc., priority 2019, published 2021).

Structures are written as SMILES.

The data set in a line: solubility of CBGA and CBG in water as a function of pH (solubility curves, FIG. 4).

For `CCCCCc1cc(O)c(C/C=C(\C)CCC=C(C)C)c(O)c1C(=O)O` [CBGA, cannabigerolic acid], under “pH 11.5 (25% KOH), water:IPM 4:1”, the “solubility in aqueous phase” value is given as “soluble”. The solubility in water entry (pH <2) is “insoluble”.
